# Test results taken from the NIST ThermoML archive (doi:10.1016/j.jct.2008.01.008).
# ± gives the expanded uncertainty stated by the source.
# How the values were obtained:
# [1] = 298.15 K, 101.33 kPa, Liquid; for viscosity: Capillary tube (Ostwald / Ubbelohde) method; for speed of sound: Sing-around technique in a fixed-path interferometer
# [2] = xn = mol fraction of the nth substance listed; settings: 298.15 K, 101 kPa, Liquid; for viscosity: Capillary tube (Ostwald / Ubbelohde) method; for speed of sound: Sing-around technique in a fixed-path interferometer
structure (smiles),measurement,setting,value
COCC(C)OCC(C)OC (centres undefined) [2-methoxy-1-(2-methoxy-1-methylethoxy)propane],mass density,[1],898.566 ± 0.33 kg/m3
same,viscosity,[1],0.9926 ± 0.012 mPa·s
same,speed of sound,[1],1205 ± 0.8 m/s
CO [methanol],mass density,[1],786.548 ± 0.49 kg/m3
same,viscosity,[1],0.5444 ± 0.011 mPa·s
same,speed of sound,[1],1102.6 ± 0.77 m/s
CCCCCCCO [heptan-1-ol],mass density,[1],818.851 ± 0.45 kg/m3
same,viscosity,[1],5.886 ± 0.034 mPa·s
same,speed of sound,[1],1327.4 ± 0.84 m/s
COCC(C)OCC(C)OC (centres undefined) [2-methoxy-1-(2-methoxy-1-methylethoxy)propane] + CCCO,viscosity,[2]; x1 = 0.0008,1.955 ± 0.015 mPa·s
same,viscosity,[2]; x1 = 0.0061,1.928 ± 0.015 mPa·s
same,viscosity,[2]; x1 = 0.0186,1.866 ± 0.015 mPa·s
same,viscosity,[2]; x1 = 0.0409,1.775 ± 0.015 mPa·s
same,viscosity,[2]; x1 = 0.0666,1.678 ± 0.014 mPa·s
same,viscosity,[2]; x1 = 0.0903,1.599 ± 0.014 mPa·s
same,viscosity,[2]; x1 = 0.1309,1.494 ± 0.013 mPa·s
same,viscosity,[2]; x1 = 0.1846,1.382 ± 0.013 mPa·s
same,viscosity,[2]; x1 = 0.267,1.264 ± 0.013 mPa·s
same,viscosity,[2]; x1 = 0.3136,1.211 ± 0.012 mPa·s
same,viscosity,[2]; x1 = 0.345,1.184 ± 0.012 mPa·s
same,viscosity,[2]; x1 = 0.3718,1.164 ± 0.012 mPa·s
same,viscosity,[2]; x1 = 0.4516,1.112 ± 0.012 mPa·s
same,viscosity,[2]; x1 = 0.5198,1.081 ± 0.012 mPa·s
same,viscosity,[2]; x1 = 0.5625,1.066 ± 0.012 mPa·s
same,viscosity,[2]; x1 = 0.6111,1.05 ± 0.012 mPa·s
same,viscosity,[2]; x1 = 0.6459,1.043 ± 0.012 mPa·s
same,viscosity,[2]; x1 = 0.7346,1.021 ± 0.012 mPa·s
same,viscosity,[2]; x1 = 0.7703,1.012 ± 0.012 mPa·s
same,viscosity,[2]; x1 = 0.8317,1.005 ± 0.012 mPa·s
same,viscosity,[2]; x1 = 0.8591,1.002 ± 0.012 mPa·s
same,viscosity,[2]; x1 = 0.9511,0.9968 ± 0.012 mPa·s
same,viscosity,[2]; x1 = 0.9753,0.993 ± 0.012 mPa·s
same,viscosity,[2]; x1 = 0.9915,0.9927 ± 0.012 mPa·s
same,speed of sound,[2]; x1 = 0.0653,1210.9 ± 0.81 m/s
same,speed of sound,[2]; x1 = 0.1089,1212.8 ± 0.81 m/s
same,speed of sound,[2]; x1 = 0.1451,1214 ± 0.81 m/s
same,speed of sound,[2]; x1 = 0.2124,1215.2 ± 0.81 m/s
same,speed of sound,[2]; x1 = 0.2694,1216 ± 0.81 m/s
same,speed of sound,[2]; x1 = 0.3041,1215.8 ± 0.81 m/s
same,speed of sound,[2]; x1 = 0.3359,1215.6 ± 0.81 m/s
same,speed of sound,[2]; x1 = 0.3913,1215.6 ± 0.81 m/s
same,speed of sound,[2]; x1 = 0.4561,1215.4 ± 0.81 m/s
same,speed of sound,[2]; x1 = 0.502,1215.3 ± 0.81 m/s
same,speed of sound,[2]; x1 = 0.5464,1214.6 ± 0.81 m/s
same,speed of sound,[2]; x1 = 0.6139,1213.9 ± 0.81 m/s
same,speed of sound,[2]; x1 = 0.6513,1213.2 ± 0.81 m/s
same,speed of sound,[2]; x1 = 0.708,1212.5 ± 0.81 m/s
same,speed of sound,[2]; x1 = 0.7572,1211.4 ± 0.81 m/s
same,speed of sound,[2]; x1 = 0.8098,1210.3 ± 0.81 m/s
same,speed of sound,[2]; x1 = 0.8457,1209.5 ± 0.81 m/s
same,speed of sound,[2]; x1 = 0.9067,1207.9 ± 0.8 m/s
same,speed of sound,[2]; x1 = 0.9576,1206.4 ± 0.8 m/s
same,speed of sound,[2]; x1 = 0.9746,1206.1 ± 0.8 m/s
same,mass density,[2]; x1 = 0.0653,815.198 ± 0.45 kg/m3
same,mass density,[2]; x1 = 0.1089,824.018 ± 0.43 kg/m3
same,mass density,[2]; x1 = 0.1451,830.582 ± 0.42 kg/m3
same,mass density,[2]; x1 = 0.2124,841.11 ± 0.41 kg/m3
same,mass density,[2]; x1 = 0.2694,848.766 ± 0.4 kg/m3
same,mass density,[2]; x1 = 0.3041,852.935 ± 0.39 kg/m3
same,mass density,[2]; x1 = 0.3359,856.509 ± 0.39 kg/m3
same,mass density,[2]; x1 = 0.3913,862.204 ± 0.38 kg/m3
same,mass density,[2]; x1 = 0.4561,868.154 ± 0.37 kg/m3
same,mass density,[2]; x1 = 0.502,872.013 ± 0.36 kg/m3
same,mass density,[2]; x1 = 0.5464,875.439 ± 0.36 kg/m3
same,mass density,[2]; x1 = 0.6139,880.179 ± 0.35 kg/m3
same,mass density,[2]; x1 = 0.6513,882.571 ± 0.35 kg/m3
same,mass density,[2]; x1 = 0.708,885.911 ± 0.34 kg/m3
same,mass density,[2]; x1 = 0.7572,888.492 ± 0.34 kg/m3
same,mass density,[2]; x1 = 0.8098,891.002 ± 0.33 kg/m3
same,mass density,[2]; x1 = 0.8457,892.536 ± 0.33 kg/m3
same,mass density,[2]; x1 = 0.9067,894.986 ± 0.33 kg/m3
same,mass density,[2]; x1 = 0.9576,896.939 ± 0.33 kg/m3
same,mass density,[2]; x1 = 0.9746,897.584 ± 0.32 kg/m3
CCCCCO [pentan-1-ol],mass density,[1],811.001 ± 0.46 kg/m3
same,viscosity,[1],3.495 ± 0.022 mPa·s
same,speed of sound,[1],1276 ± 0.83 m/s
CCCO [propan-1-ol],mass density,[1],799.666 ± 0.47 kg/m3
same,viscosity,[1],1.959 ± 0.015 mPa·s
same,speed of sound,[1],1206.5 ± 0.8 m/s
